Test results published in patent publication US9388215B2, “Compositions and methods of using islet neogenesis peptides and analogs thereof” (SHENZHEN HIGHTIDE BIOPHARMACEUTICAL, LTD., priority 2013, dated 2016).
Values belong to the substance of their own block, whether it stands above or below them. Ends that are not written are not given here.

Columns and labels:
pancreatic islets = assay: Glucose-stimulated insulin secretion (GSIS) of isolated islets; assay type: cell-based, rat; conditions: 12.0 mM glucose; 10 μg/mL peptide or 100 nM GLP-1; 60 min; FIG. 8
Protocol: The pancreases were procured from male adult Sprague-Dawley (SD) rats. After 7 days acclimation, the animals were sacrificed by cervical dislocation and the entire pancreas was removed and digested with collagenase to isolate islets. After digestion, islets were maintained at 37° C. in RPMI 1640 (Carlsbad Calif., USA) pH 7.4, containing 10% (v/v) fetal calf serum, 1% penicillin/streptomycin, and 10 mM glucose in a humid atmosphere (5% CO2/95% O2), without the addition of any compound (control), or with the addition of 100 nM glucagon like peptide-1 (GLP-1); or 10 μg/mL Peptide 1, Peptide 12, or Peptide 16, as summarized in Table 4 below. Cultured islets were rinsed in Krebs-Ringer bicarbonate buffer (KRB), pH 7.4, previously gassed with a mixture of CO2/O2 (5/95%), and pre-incubated in 1.0 ml of KRB containing 0.5% (w/v) BSA and 1.5 mM glucose at 37° C. for 45 min. After this period, groups of 5 islets were incubated in 0.6 ml KRB with the addition of 1.5 or 12.0 mM glucose, with or without the addition of peptides for 60 min. At the end of the incubation period, aliquots of the medium were collected for insulin quantitation.

[1] = Pharmacokinetics in mouse, subcutaneous bolus; assay type: in vivo; conditions: male, C57BL/6, mouse, in vivo, sc, 25 mg/kg
Protocol: (§1) After 7 days acclimation, male Sprague-Dawley (SD) rats weighing 210-250 g, or male C57BL/6 mice, weighing 19-24 g, in good health were used in the study. Peptide 1, Peptide 12 and Peptide 16 were dissolved in sterile normal saline and then they were injected via subcutaneous (sc) bolus or intravenous (iv) bolus at the dose level of 25 mg/kg. Three animals in each group were used for blood collection at the time point of 5 min, 15 min, 30 min, 1 h, 2 h, 4 h, 6 h, 8 h and 24 h post-dose. Blood samples (approximately 400 μL) were collected and placed into tubes containing EDTA-K2 and centrifuged at 8000 rpm for 6 minutes at 4° C. to separate plasma from the samples. The resulting plasma was stored frozen at −80° C. until being analyzed. Plasma concentrations of peptides were determined using tandem mass spectrometry (LC-MS/MS) analysis. A non-compartmental module of WinNonlin® Professional 5.2 (Pharsight; St. Louis Mo.), was used to calculate PK parameters. The abbreviation AUC(0-t) represents area under the curve from the time of dosing to the time of the last observation, the AUC(0-∞) represents area under the curve from the time of dosing to infinity, and the Cmax represents maximum concentration detected.

[2] = Pharmacokinetics in rat, subcutaneous bolus (Example VII); assay type: in vivo; conditions: male, Sprague-Dawley, rat, in vivo, sc, 25 mg/kg
Protocol: as §1

[3] = Pharmacokinetics in rat, intravenous bolus; assay type: in vivo; conditions: male, Sprague-Dawley, rat, in vivo, iv, 25 mg/kg
Protocol: as §1

normal C57BL/6J mice [4] = assay: Induction of extra islet insulin positive β cell clusters (EIC) in normal C57BL/6J mice; assay type: in vivo, mouse; conditions: analog 5 mg/kg vs INGAP-PP 50 mg/kg, 10 days
Protocol: After a 1-week acclimation, female C57BL/6J mice were randomly divided into 6 groups (n=5 per group). The control group received 10 mL/kg sterile normal saline via subcutaneous injection for 10 consecutive days. The other five groups received INGAP-PP (Peptide 1) or INGAP-PP analogs Peptide 12, Peptide 16, Peptide 29 or Peptide 31 at a dose of 50 mg/kg or 5 mg/kg per day, respectively, for the same period. On day 11, the pancreas was removed from each animal, cleared of fat and lymph nodes, weighed, and fixed in 10% neutral buffered formalin (NBF) for no longer than 24 hours before processing for morphometric analysis.
Immunohistochemistry analysis was used to assess the islet neogenic activities of peptides by measuring the number and area of extra islet insulin positive β cell clusters (EIC) of pancreatic tissues harvested from each individual group post 10 day treatment. EIC is indicative of islet neogenesis, as previously described by Lipsett and Finegood (Diabetes 51:1834-1841 (2002)).

[5] = Pharmacokinetics in SD rats after single subcutaneous dose (Example X); assay type: in vivo, rat; conditions: male, Sprague-Dawley, rat, in vivo, sc, 25 mg/kg
Protocol: After 7 days acclimation, a total of 15 male Sprague-Dawley (SD) rats (body weight: 230 to 270 g) in good health from Sino-British SIPPR/BK Lab Animal Ltd, Shanghai, were used in the study. All peptides, Peptide 1, Peptide 12, Peptide 16, Peptide 29 or Peptide 31, were dissolved in sterile normal saline respectively to yield the desired final concentrations and were administered via single subcutaneous (sc) dose.
Three animals in each group were used for blood collection at the time point of 5 min, 15 min, 30 min, 1 h, 2 h, 4 h, 6 h, 8 h and 24 h post-dose. Blood samples (approximately 400 μL) were collected and placed into tubes containing EDTA-K2 (dipotassium ethylene diamine tetraacetic acid) and centrifuged at 8000 rpm for 6 minutes at 4° C. to separate plasma from the samples. The resulting plasma was stored frozen at −80° C. until being analyzed.
Plasma concentrations of peptides were determined using tandem mass spectrometry (LC-MS/MS) analysis. A non-compartmental module of WinNonlin® Professional 5.2 (Pharsight; St. Louis Mo.) was used to calculate PK parameters. AUC(0-t) represents area under the curve from the time of dosing to the time of the last observation, the AUC(0-∞) represents area under the curve from the time of dosing to infinity, and the Cmax represents maximum concentration detected.

[6] = Peptide concentration in plasma and pancreas 30 min post dose; assay type: in vivo, rat; conditions: male, Sprague-Dawley, rat, in vivo, sc, 25 mg/kg, Peptide concentration
Protocol: To further characterize the pharmacokinetic (PK) properties of peptides, peptide concentration in pancreas—the target organ, was determined 30 min post dose. Briefly, INGAP-PP (Peptide 1), Peptide 12, or Peptide 31 was dissolved in sterile normal saline and then was administered via subcutaneous (sc) bolus at the dose level of 25 mg/kg to male Sprague-Dawley (SD) rats. Five animals in each group were used for blood and pancreas collection at the time point of 30 min post-dose. Blood samples (approximately 400 μL) were collected and placed into tubes containing EDTA-K2 and centrifuged at 8000 rpm for 6 minutes at 4° C. to separate plasma from the samples. After blood extraction and animal sacrifice, the pancreas was removed immediately from each animal, cleared of fat and lymph nodes, weighed, and placed into 5 fold volume of ice cold sterile normal saline with protease inhibitor cocktail (Merck Millipore, catalogue #539137) to homogenize with a homogenizer.
The peptide concentration of the plasma and pancreatic homogenate was determined immediately using tandem mass spectrometry (LC-MS/MS) analysis and the results are presented in Table 8.

[7] = assay type: physicochemical; conditions: pH 7.4
Protocol: Peptide stability in buffers was tested for INGAP-PP and selected analogs. 10 mg/mL of Peptide 1, Peptide 12, Peptide 16, Peptide 29 or Peptide 31 was dissolved in isotonic buffers with pH ranging from 4.0 to 8.0. […] Peptide 12 and Peptide 29 were stable in an isotonic phosphate buffer (pH 7.4) for more than 90 days at 4° C. (there was no sign of degradation at 90 days sample check point), and 60 days at 25° C.

[8] = Peptide stability in rat plasma; assay type: in vitro ADME; conditions: 100 μg/mL, 37° C.; FIG. 12, 13
Protocol: (§2) The stability of peptides was also tested in rat, mouse and human plasma. Briefly, a certain amount of peptides and eucatropine powder (positive control) was accurately weighed. Test compounds were dissolved in 50% methanol-water solution and diluted to 20 mg/mL, and eucatropine was dissolved in dimethylsulfoxide (DMSO) and diluted to 10 mM, as a stock solution. Eucatropine stock solution was diluted to 0.2 mM with DMSO as a working solution. A stop reagent was prepared containing 200 ng/mL midazolam and tolbutamide in acetonitrile. A volume of 300 μL of stop solution was added to each well of a 96-well deep-well plate placed on ice beforehand.
(§3) For the stability studies, peptides and eucatropine were spiked into plasma respectively, mixed well, and then 100 μL of each mixture solution was transferred into the pre-cooled stop reagent as 0 time point sample. The remaining mixtures were incubated in a 37° C. water bath with shaking at 100 rpm (n=2). The final incubation concentration was 1 μM for eucatropine and 100 μg/mL for all test compounds.
(§4) At desired time points, 100 μL of incubation mixture was transferred to the stop reagent to precipitate proteins. Samples were vortexed and centrifuged at RCF 5000×g for 10 minutes, and supernatant was transferred to a test plate. The samples were analyzed by LC-MS/MS.
(§5) Slope was calculated by plotting the natural logarithm of the percentage of remaining amount of test compounds and time, and T1/2 was calculated in accordance with the following formula.
For stability in rat plasma, the incubation time was 0, 15, 30, 60 and 120 min for Peptide 1 and eucatropine, and 0, 15, 30, 60, 120, and 240 min for Peptide 12, Peptide 16, Peptide 29 and Peptide 31.
In another stability study in rat plasma, the incubation time was 0, 30, 60 120 and 240 min for Peptide 2, Peptide 52, Peptide 64 and eucatropine.

[9] = Peptide stability in mouse plasma; assay type: in vitro ADME; conditions: 100 μg/mL, 37° C.; FIG. 3, 5, 14
Protocol: as §2, with “in” for “in rat,”
as §3, with “[…]” for “1 μM”
as §4, §5
For stability in mouse plasma, the incubation time was 0, 5, 15, 30 and 60 min for Peptide 1 and eucatropine; 0, 15, 30, 60, 120, 240 and 480 min for Peptide 12, Peptide 16 and Peptide 29.
In another stability study in mouse plasma, the incubation time was 0, 30, 60 and 120 min for Peptide 2 and eucatropine; 0, 30, 60, 120, 240 and 960 min for Peptide 52 and Peptide 54.
as §2, §3
For stability in mouse plasma, the incubation time was 0, 15, 30, 60 and 120 min for Peptide 1 and eucatropine; 0, 15, 30, 60, 120, and 240 min for Peptide 31.

normal C57BL/6J mice [10] = assay: Induction of small β-cell clusters in normal C57BL/6J mice (islet size distribution); assay type: in vivo, mouse; conditions: normal mice
Protocol: After a 1-week acclimation, C57BL/6J female mice were randomly divided into 4 groups. The two control groups received either 10 mL/kg sterile normal saline (n=4) or scrambled peptide (Peptide 3, 25 mg/kg) (n=5) via subcutaneous injection for 10 days. The other two groups received INGAP-PP (Peptide 1) or INGAP-PP analog Peptide 7 at a dose of 25 mg/kg per day respectively (n=7 per group) for the same period. Body weight and 6 hour fasting blood glucose were measured before treatment and after the last dosing of treatment. Plasma and pancreatic insulin were also measured at the end of the study. On day 11, the pancreas was removed from each animal, cleared of fat and lymph nodes, weighed, and fixed in 10% neutral buffered formalin (NBF) for no longer than 24 hours before processing for morphometric analysis.
Immunohistochemistry analysis was used to determine pancreatic islet size distribution.

AUC(0-inf) [1]: 5890 ng·h/mL
AUC(0-t) [1]: 5870 ng·h/mL
Cmax [1]: 11600 ng/mL
AUC(0-inf) [2]: 8480 ng·h/mL
AUC(0-t) [2]: 8420 ng·h/mL
Cmax [2]: 14000 ng/mL
AUC(0-inf) [3]: 12600 ng·h/mL
AUC(0-t) [3]: 12600 ng·h/mL
Cmax [3]: 44300 ng/mL
AUC(0-inf) [5]: 11200 ± 1210 ng·h/mL
AUC(0-t) [5]: 11100 ± 1370 ng·h/mL
Cmax [5]: 21400 ± 1350 ng/mL
level at 0.5 h ([6]; Pancreas): 877 ± 261 ng/mL
level at 0.5 h ([6]; Plasma): 5370 ± 981 ng/mL
time stable in isotonic phosphate buffer (pH 7.4) at 4° C. [7]: more than 90 days
time stable in isotonic phosphate buffer (pH 7.4) at 25° C. [7]: 60 days
Substance: Ac-IGLHDPSHGTLPAGS-OH [Peptide 12, Ac-IGLHDPSHGTLPAGS-OH]
glucose-stimulated insulin release vs islets without peptide (pancreatic islets): released significantly more insulin than those cultured without the addition of peptides
islet neogenesis efficacy relative to INGAP-PP (normal C57BL/6J mice [4]): comparable or improved efficacy was achieved at a dose one tenth of INGAP-PP

Substance: Ac-IGLHDPTQGTEPAGE-NH2 [Peptide 62, Ac-IGLHDPTQGTEPAGE-NH2]
stability in rat plasma [8]: exhibited good stability in rat plasma and were significantly more stable than HIP

Substance: Ac-IGLHDPTQGTEPAGE-OH [Peptide 52, Ac-IGLHDPTQGTEPAGE-OH]
stability in mouse plasma [9]: exhibited good stability in mouse plasma and were significantly more stable than HIP
stability in rat plasma [8]: exhibited good stability in rat plasma and were significantly more stable than HIP

Substance: Ac-IGLHDPTQGTEPNGE-OH [Peptide 54, Ac-IGLHDPTQGTEPNGE-OH]
stability in mouse plasma [9]: exhibited good stability in mouse plasma and were significantly more stable than HIP

Substance: GLP-1: Glucagon like peptide-1, 100 nM, included as a positive control in GSIS (HAEGTFTSDVSSYLEGQAAKEFIAWLVKGR; ends and bridges not checked; UniProt P01275 98-127, looked up) [reference compound]
glucose-stimulated insulin release vs islets without peptide (pancreatic islets): released significantly more insulin than those cultured without the addition of peptides

Substance: H-SHPNGSGTIGLHDPL-OH [Peptide 3, H-SHPNGSGTIGLHDPL-OH]
effect on body weight, blood glucose, plasma insulin, pancreas insulin, pancreas weight (normal C57BL/6J mice [10]; 25 mg/kg per day sc for 10 days, compared to saline group): did not affect body weight, blood glucose, plasma insulin, pancreas insulin, or pancreas weight
all parameters measured, scrambled peptide versus normal saline (normal C57BL/6J mice [10]; 25 mg/kg, 10 days): no difference
